Results from publication PMC7767178 (International Journal of Molecular Sciences, 2020).
Like-named read-outs stand apart in the source and are kept apart here. Positions of bridges follow the written chain, without caps; N, C: chain ends. Residues, ends and D or L forms follow the SMILES beside them.

Columns and labels:
A. veronii X-1-06909 = experiment: microbe, parasite or virus in culture; type: cell-based
From the text: (§1) All experiments were repeated three times.

[1] = test system: Candida albicans CMCC98001; experiment: microbe, parasite or virus in culture; type: cell-based
From the text: as §1

E. coli CVCC1515 = experiment: microbe, parasite or virus in culture; type: cell-based
From the text: as §1

E. coli CVCC25922 = experiment: microbe, parasite or virus in culture; type: cell-based; settings: E. coli CVCC25922, broth dilution, 37 °C, 16–18 h, three experiments
From the text: as §1

Escherichia coli CVCC195 = experiment: microbe, parasite or virus in culture; type: cell-based; settings: Escherichia coli CVCC195, broth dilution, 37 °C, 16–18 h, three experiments
From the text: as §1

S. enteritidis CVCC3377 = experiment: microbe, parasite or virus in culture; type: cell-based
From the text: as §1

S. pullorum CVCC1789 = experiment: microbe, parasite or virus in culture; type: cell-based
From the text: as §1

S. pullorum CVCC1809 = experiment: microbe, parasite or virus in culture; type: cell-based; settings: S. pullorum CVCC1809, broth dilution, 37 °C, 16–18 h, three experiments
From the text: as §1

S. pullorum CVCC533 = experiment: microbe, parasite or virus in culture; type: cell-based
From the text: as §1

[2] = test system: Staphylococcus aureus ATCC43300; experiment: microbe, parasite or virus in culture; type: cell-based
From the text: as §1

E. coli CVCCO157 = experiment: MIC, microtiter broth dilution; type: cell-based; settings: 37 °C, 16–18 h, three experiments
From the text: as §1

S. hyicus 437-2 = type: cell-based
A. veronii = experiment: MIC, range over strains; type: cell-based; settings: range over the strains of Table 2
From the text: as §1

Escherichia coli = experiment: MIC, range over strains; type: cell-based; settings: range over the strains of Table 2
From the text: as §1

A. veronii ACCC61732 [3] = experiment: Time-killing curves; type: cell-based; settings: 2× MIC; 1 × 10^5 CFU/mL, colony counting, 0–24 h
Procedure: Time-killing curves were performed as previously described. […] The sample of 100 μL was taken from each flask at 0, 0.5, 1, 2, 4, 6, 8, 10, 20, and 24 h, respectively, and serially diluted for colony counting. PBS and CIP were used as the negative and positive control, respectively.

A. veronii ACCC61732 [4] = experiment: Post-antibiotic effect (PAE); type: cell-based; settings: for PAE: 2 h exposure, 1000-fold dilution, 37 °C, triplicate
Procedure: The samples were taken from flasks for counting each hour until bacterial cultures became turbid. The untreated bacteria severed as controls. The PAE was calculated using the following equation: PAE = T − C, where T is the time (h) required for the CFU in the test culture to increase by 10-fold from the count immediately after the drug removal and C is the corresponding time (h) for the control. The experiment was performed in triplicate.

A. veronii ACCC61732 [5] = experiment: Resistance development, 30 serial passages; type: cell-based; settings: A. veronii ACCC61732, 30 passages (30 days)
Procedure: The development of bacterial resistance of peptides was performed by the MIC assays. […] GEN, CIP, and PMB were used as controls. […] The MIC values were measured as described above. The serial passaging was repeated for 30 days.

A. veronii ACCC61732 [6] = experiment: Outer membrane permeabilization, NPN assay; type: cell-based; settings: NPN fluorescence, 1×–4× MIC
Procedure: The outer membrane permeabilization abilities of peptides were determined using the fluorescent NPN assay. Mid-log phase A. veronii ACCC61732 was collected by centrifugation, washed twice, and then suspended in N-2-hydroxyethylpiperazine-n-2-ethane sulfonic acid (HEPES) buffer (pH 7.4) to an OD600nm = 0.4. […] Fluorescence intensity was recorded until no further increase with a microplate reader (excitation/emission, 328/438 nm).

A. veronii ACCC61732 [7] = experiment: Inner membrane permeability, PI staining, flow cytometry; type: cell-based
Procedure, shortened: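 Mid-log A. veronii ACCC61732 grown in MHB at 37 °C, washed and resuspended in PBS at 1 × 10^8 CFU/mL, were peptide-treated and stained with propidium iodide. Uptake assessed by fluorescence microscopy and flow cytometry.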

[8] = test system: A. veronii ACCC61732 in biofilm; type: cell-based; settings: 2 h
Procedure: The mid-log phase A. veronii ACCC61732 cells (1 × 10^8 CFU/mL) were inoculated into in the 96-well plates and cultured for 24 h at 37 °C. The plates were washed twice with PBS. […] PBS was used as the negative control. The plates were treated with ultrasound for 5 min and the viable bacteria were counted on the TSA plates.

IL-10 = experiment: Serum cytokine, ELISA, peritonitis model; type: in vivo; settings: 5 μmol/kg, 24 h after treatment, range over mice
Procedure: (§2) Sera and organs (livers, kidneys, spleens, and lungs) were collected from the mice at 24 h post-treatment. The organs were homogenized in sterile PBS to evaluate bacterial translocation by colony counting. The levels of cytokines (TNF-α, IL-1β, IL-6, and IL-10) in sera were detected using the ELISA kits.

IL-1β = experiment: Serum cytokine, ELISA, peritonitis model; type: in vivo; settings: 5 μmol/kg, 24 h after treatment, range over mice
Procedure: as §2

IL-6 = experiment: Serum cytokine, ELISA, peritonitis model; type: in vivo; settings: 5 μmol/kg, 24 h after treatment, range over mice
Procedure: as §2

TNF-α = experiment: Serum cytokine, ELISA, peritonitis model; type: in vivo; settings: 5 μmol/kg, 24 h after treatment, range over mice
Procedure: as §2

CC(C)[C@H](N)C(=O)N[C@@H](Cc1ccccc1)C(=O)N[C@@H](C)C(=O)N[C@@H](Cc1c[nH]c2ccccc12)C(=O)N[C@@H](CC(N)=O)C(=O)N[C@H](C(=O)N[C@H]1CSSC[C@@H](C(=O)N[C@@H](Cc2c[nH]cn2)C(=O)N[C@@H](CCCNC(=N)N)C(=O)N[C@@H](CCCNC(=N)N)C(=O)N[C@@H](C)C(=O)N[C@@H](CC(N)=O)C(N)=O)NC(=O)[C@H](C(C)C)NC(=O)[C@H](CCCNC(=N)N)NC(=O)[C@H](C(C)C)NC(=O)[C@H](C(C)C)NC(=O)[C@H](CC(N)=O)NC(=O)[C@H](CCCNC(=N)N)NC(=O)[C@H](Cc2ccc(O)cc2)NC(=O)[C@H](C(C)C)NC1=O)C(C)C [V112N6NH2] (H-VFAWNVCVYRNVVRVCHRRAN-NH2; disulfide 7-16 (inferred))
MIC (A. veronii X-1-06909; A. veronii X-1-06909, broth dilution, 37 °C, 16–18 h, three experiments): 32 µg/mL | MIC (A. veronii X-1-06909; read-out: MIC): 12.51 µM | MIC ([1]; CMCC98001, read-out: MIC): >50.02 µM | MIC ([1]; Candida albicans CMCC98001, broth dilution, 37 °C, 16–18 h, three experiments): >128 µg/mL | MIC (E. coli CVCC1515; CVCC1515, read-out: MIC): 1.56 µM | MIC (E. coli CVCC1515; E. coli CVCC1515, broth dilution, 37 °C, 16–18 h, three experiments): 4 µg/mL | MIC (E. coli CVCC25922): 8 µg/mL | MIC (E. coli CVCC25922; read-out: MIC): 3.13 µM | MIC (Escherichia coli CVCC195): 8 µg/mL | MIC (Escherichia coli CVCC195; read-out: MIC): 3.13 µM | MIC (S. enteritidis CVCC3377; CVCC3377, read-out: MIC): 0.78 µM | MIC (S. enteritidis CVCC3377; S. enteritidis CVCC3377, broth dilution, 37 °C, 16–18 h, three experiments): 2 µg/mL | MIC (S. pullorum CVCC1789; CVCC1789, read-out: MIC): 6.25 µM | MIC (S. pullorum CVCC1789; S. pullorum CVCC1789, broth dilution, 37 °C, 16–18 h, three experiments): 16 µg/mL | MIC (S. pullorum CVCC1809): 8 µg/mL | MIC (S. pullorum CVCC1809; read-out: MIC): 3.13 µM | MIC (S. pullorum CVCC533; CVCC533, read-out: MIC): 6.25 µM | MIC (S. pullorum CVCC533; S. pullorum CVCC533, broth dilution, 37 °C, 16–18 h, three experiments): 16 µg/mL | MIC ([2]; ATCC43300, read-out: MIC): 12.5 µM | MIC ([2]; Staphylococcus aureus ATCC43300, broth dilution, 37 °C, 16–18 h, three experiments): 32 µg/mL | MIC (E. coli CVCCO157): 8 µg/mL | MIC (E. coli CVCCO157; read-out: MIC): 3.13 µM | MIC (S. hyicus 437-2): 12.5 µM | MIC (S. hyicus 437-2; S. hyicus 437-2 (clinical isolate, pig farm), broth dilution, 37 °C, 16–18 h, three experiments): 32 µg/mL | MIC values against A. veronii (A. veronii): 6.25 to 12.51 µM | MIC values against Escherichia coli (Escherichia coli): 1.56 to 3.13 µM | time to completely kill A. veronii ACCC61732 (A. veronii ACCC61732 [3]): unable completely kill | PAE (A. veronii ACCC61732 [4]; 1× MIC): 0.74 ± 0.02 h | PAEs, range over 1×–4× MIC (A. veronii ACCC61732 [4]; 1× to 4× MIC): 0.74 to 2.15 h | PAE (A. veronii ACCC61732 [4]; 2× MIC): 1.48 ± 0.05 h | PAE (A. veronii ACCC61732 [4]; 4× MIC): 2.15 ± 0.13 h | increase of MIC after 30 serial passages (A. veronii ACCC61732 [5]): one-fold | ability to penetrate the outer membrane (A. veronii ACCC61732 [6]): best ability to penetrate the outer membrane | Permeability (PI-positive cells) (A. veronii ACCC61732 [7]; 1× MIC, 0.5 h): 0% | Permeability (PI-positive cells) (A. veronii ACCC61732 [7]; 1× MIC, 2 h): 1.8% | Permeability (PI-positive cells) (A. veronii ACCC61732 [7]; 2× MIC, 0.5 h): 0% | Permeability (PI-positive cells) (A. veronii ACCC61732 [7]; 2× MIC, 2 h): 5.67% | Permeability (PI-positive cells) (A. veronii ACCC61732 [7]; 4× MIC, 0.5 h): 4.28% | Permeability (PI-positive cells) (A. veronii ACCC61732 [7]; 4× MIC, 2 h): 23.93% | bacteria in biofilm killed [8]; 8: 46.21% | bacteria in biofilm killed [8]; 16: 52.04% | serum level of IL-10 (IL-10): 16.48 to 19.60 pg/mL | serum level of IL-1β (IL-1β): 16.41 to 24.86 pg/mL | serum level of IL-6 (IL-6): 133.08 to 150.00 pg/mL | serum level of TNF-α (TNF-α): 52.05 to 59.01 pg/mL
